{"source": "paper PMC12081876", "about": "“Identification of PTGR2 inhibitors as a new therapeutic strategy for diabetes and obesity” (EMBO Molecular Medicine, 2025)", "key": {"Myc-DDK-mPPARγ": {"molecular_target": "T1, Myc-DDK-mPPARγ (Mus musculus, UniProt P37238)", "T1 construct": "host or cells: HEK293T", "test": "Reciprocal co-immunoprecipitation in HEK293T cells, wild-type mPPARγ", "format": "binding, murine", "details": "15-keto-PGE2 treated", "method": "HEK293T cells were transfected with murin PPARγ (mPPARγ) and mPPARγ C313A plasmids for immunoprecipitation, which are Myc-DDK-tagged (OriGene, USA). […] According to the manufacturer’s protocol, proteins were immunoprecipitated using Anti-FLAG® M2 Magnetic Beads (2.5 mg/ml; cat. no. F1804, Sigma-Aldrich). Subsequently, the eluted proteins were separated by SDS-PAGE and subjected to immunoblot analysis. Following separation by SDS-PAGE, proteins were stained with Coomassie blue and SYPRO-Ruby stain. The protein bands of interest were cut out for in-gel tryptic digestion followed by C18 Zip-Tip clean-up (Millipore, USA). For proteomic shotgun identifications, nanoLC-nanoESI-MS/MS analysis was performed on a nanoAcquity system (Waters, USA) connected to the LTQ Orbitrap Velos hybrid MS (Thermo Electron, USA) equipped with a PicoView nanospray interface (New Objective, USA). Samples were loaded onto a C18 BEH column (75 μm × 25 cm length, 130 Å, 1.7 μm particle size) (Waters, USA) and separated by a segmented gradient form in 60 min from 5% to 40% acetonitrile (with 0.1% formic acid) at a constant flow rate of 300 nL/min with a column temperature of 35 °C. The mass spectrometer was operated in the data-dependent mode. […] Protein identification and modification were analyzed using Mascot Daemon (Matrix Science Inc., Chicago). […]"}, "[1]": {"system": "murine PPARγ Ser273 phosphorylation", "test": "TNFα-induced PPARγ Ser273 phosphorylation in 3T3-L1 adipocytes", "format": "cell-based", "details": "cultured murine adipocytes", "method": "For cell-based assay, 3T3-L1 cells were induced differentiation one day after achieving 100% confluence with 0.5 mM IBMX, 1 µm dexamethasone and 10 μg/mL insulin in DMEM containing 10% FBS for 2 days and maintained differentiation in DMEM supplemented with 10 μg/mL insulin and 10% FBS for 4 days. The medium was changed every 2 days. […] Then TNFα was added to induce PPARγ phosphorylation in a concentration of 50 ng/ml for 15 min. Cells were harvested and lysed in RIPA buffer supplemented with 1X cOmplete™, EDTA-free Protease Inhibitor Cocktail (cat. no. 04693132001, Roche) and 1X PhosSTOP™ (cat. no. 4906845001, Roche).\nThe protein concentrations of tissue lysates were measured by Bradford reagent (cat. no. BP500-0006, Bio-Rad). The protein samples were mixed with 6X sample buffer (0.3 M Tris-HCl, pH 6.8, 0.6 M DTT, 12% SDS, 0.6% Bromophenel blue and 60% glycerol) and heated at 70 °C for 5 min. 30 μg of each sample were separated by 10% SDS-PAGE gel and were transferred to PVDF membrane. The membrane was blocked by 3% BSA in Tris-buffered saline containing 0.1% Tween-20 for 1 h at room temperature and incubated with primary antibody at 4 °C overnight. […] Protein expression of phospho-PPARγ was analyzed using ImageJ software and normalized against PPARγ and GAPDH."}, "[2]": {"system": "HFHSD-fed obese C57BL6/J mice", "test": "Diet-induced thermogenesis", "format": "in vivo, mouse", "details": "for interscapular area temperature, Average: Figure 2S left panel; for interscapular area temperature, Average / inguinal area temperature, Average / rectal temperatures, Average / inguinal area temperature / interscapular area temperature / rectal temperatures: in °C; for inguinal area temperature, Average: Figure 2S middle panel; for rectal temperatures, Average: Figure 2S right panel; for inguinal area temperature / interscapular area temperature / rectal temperatures: Figure 2S, individual mice", "method": "For the cold tolerance test, 24-week-old mice with matched average body weight from the two groups were placed individually on HFHSD in a 4 °C chamber. The rectal temperature of the mice was measured after 0, 1, 2, 3, 4, 5, 6, 12, and 18 h. For measuring diet-induced thermogenesis, 24-week-old mice were fasted overnight for 18 h. Then, we measured their rectal temperature at 0, 30, 60, 90, 120, 150, 180, and 240 min after HFHSD refeeding. The rectal and surface temperature were detected by thermal probes (Physitemp Therma TH-5, ThermoWorks, Alpine and MicroTherma 2T, ThermoWorks, Alpine, respectively)."}}, "note": "Several values for one entry are separate records, joined by “and”; a condition that tells them apart may be missing. Identical values can stand only once.", "data": [{"smiles": "CCCCCC(=O)/C=C/[C@H]1[C@H](O)CC(=O)[C@@H]1C/C=C\\CCCC(=O)O", "note": "[15-keto-PGE2, 15-keto-prostaglandin E2]", "values": [{"measurement": "co-immunoprecipitation with 15-keto-PGE2-cysteine antibody, wild-type mPPARγ", "setting": "Myc-DDK-mPPARγ", "value": "A single band of PPARγ (57 kDa) was detected"}, {"measurement": "phosphorylation of PPARγ Ser273", "setting": "[1]", "value": "dose-dependently reduced phosphorylation of Ser273"}, {"measurement": "interscapular, inguinal and rectal temperatures after HFHSD feeding", "setting": "[2]; 40 mg/kg/day ip, vs vehicle", "value": "higher interscapular, inguinal, and rectal temperatures after HFHSD feeding"}, {"measurement": "interscapular area temperature, Average", "setting": "[2]; period 0 min", "value": 36.7067}, {"measurement": "interscapular area temperature, Average", "setting": "[2]; period 30 min", "value": 37.7933}, {"measurement": "interscapular area temperature, Average", "setting": "[2]; period 60 min", "value": 37.6333}, {"measurement": "interscapular area temperature, Average", "setting": "[2]; period 120 min", "value": 37.5133}, {"measurement": "interscapular area temperature, Average", "setting": "[2]; period 180 min", "value": 37.3533}, {"measurement": "interscapular area temperature, Average", "setting": "[2]; period 240 min", "value": 37.1267}, {"measurement": "inguinal area temperature, Average", "setting": "[2]; period 0 min", "value": 35.1463}, {"measurement": "inguinal area temperature, Average", "setting": "[2]; period 30 min", "value": 36.4001}, {"measurement": "inguinal area temperature, Average", "setting": "[2]; period 60 min", "value": 36.234}, {"measurement": "inguinal area temperature, Average", "setting": "[2]; period 120 min", "value": 35.9052}, {"measurement": "inguinal area temperature, Average", "setting": "[2]; period 180 min", "value": 35.7573}, {"measurement": "inguinal area temperature, Average", "setting": "[2]; period 240 min", "value": 35.4703}, {"measurement": "rectal temperatures, Average", "setting": "[2]; period 0 min", "value": 36.6549}, {"measurement": "rectal temperatures, Average", "setting": "[2]; period 30 min", "value": 37.7723}, {"measurement": "rectal temperatures, Average", "setting": "[2]; period 60 min", "value": 37.6257}, {"measurement": "rectal temperatures, Average", "setting": "[2]; period 120 min", "value": 37.398}, {"measurement": "rectal temperatures, Average", "setting": "[2]; period 180 min", "value": 37.3676}, {"measurement": "rectal temperatures, Average", "setting": "[2]; period 240 min", "value": 37.1984}, {"measurement": "inguinal area temperature", "setting": "[2]; period 0 min", "value": "35.4 and 35.2 and 34.79 and 34.8 and 34.56 and 35 and 35.185 and 35.735 and 36 and 34.735 and 35.25 and 35.645 and 34.88 and 34.815"}, {"measurement": "interscapular area temperature", "setting": "[2]; period 0 min", "value": "36.9 and 37.4 and 36.4 and 36.8 and 36.6 and 37.8 and 35.4 and 36.2 and 37"}, {"measurement": "rectal temperatures", "setting": "[2]; period 0 min", "value": "36.805 and 37.06 and 36.54 and 36.445"}, {"measurement": "inguinal area temperature", "setting": "[2]; period 30 min", "value": "36.955 and 36.815 and 36.705 and 36.42 and 36.0964 and 35.905 and 36.6 and 35.865 and 35.975 and 36.115 and 36.825 and 36.785 and 36.43 and 36.095 and 36.415"}, {"measurement": "interscapular area temperature", "setting": "[2]; period 30 min", "value": "38.1 and 38.2 and 37.6 and 37.2 and 37.5 and 37.7 and 37.9 and 37.8"}, {"measurement": "rectal temperatures", "setting": "[2]; period 30 min", "value": "38.255 and 38.275 and 37.755 and 37.72"}, {"measurement": "inguinal area temperature", "setting": "[2]; period 60 min", "value": "36.755 and 36.7 and 36.085 and 36.255 and 36.2 and 35.5 and 35.9 and 35.67 and 36.1 and 36.955 and 36.3 and 36.545 and 36.31 and 35.98"}, {"measurement": "interscapular area temperature", "setting": "[2]; period 60 min", "value": "38 and 38.3 and 37.8 and 37.5 and 37.7 and 37.4 and 37.6 and 37.2"}, {"measurement": "rectal temperatures", "setting": "[2]; period 60 min", "value": "38.085 and 37.94 and 37.88 and 37.79"}, {"measurement": "inguinal area temperature", "setting": "[2]; period 120 min", "value": "36.81 and 36.5 and 36.135 and 35.755 and 36.1679 and 35.38 and 35.6 and 35.29 and 35.4 and 36.16 and 36.2 and 35.9 and 36.075 and 35.355 and 35.85"}, {"measurement": "interscapular area temperature", "setting": "[2]; period 120 min", "value": "37.7 and 38.2 and 37.9 and 37.6 and 37.2 and 37.1 and 37.5 and 37.4 and 37.3"}, {"measurement": "rectal temperatures", "setting": "[2]; period 120 min", "value": "37.95 and 37.965 and 37.615"}, {"measurement": "inguinal area temperature", "setting": "[2]; period 180 min", "value": "36.105 and 36.3 and 36.27 and 35.585 and 35.8 and 35.3 and 35.4 and 35.7 and 36.1 and 35.765 and 35.535"}, {"measurement": "interscapular area temperature", "setting": "[2]; period 180 min", "value": "37.5 and 38.4 and 37.6 and 37.4 and 36.5 and 37.2 and 37.1 and 36.9 and 37 and 37.8"}, {"measurement": "rectal temperatures", "setting": "[2]; period 180 min", "value": "37.665 and 37.81 and 37.52"}, {"measurement": "inguinal area temperature", "setting": "[2]; period 240 min", "value": "35.995 and 36.065 and 35.575 and 35.82 and 35.715 and 35.26 and 35.2 and 35.6 and 36.2 and 35.1 and 35.12 and 34.905"}, {"measurement": "interscapular area temperature", "setting": "[2]; period 240 min", "value": "37.1 and 37.5 and 37 and 37.2 and 37.3 and 36.2 and 36.8 and 37.4 and 36.6"}, {"measurement": "rectal temperatures", "setting": "[2]; period 240 min", "value": "37.705 and 37.57 and 37.21"}]}]}
